Assay results: US20150126364A1, “1,3-DIARYL-SUBSTITUTED HETEROCYCLIC PESTICIDES” (E I DU PONT DE NEMOURS AND COMPANY, priority 2012, published 2015)

Tested on: potato leafhopper (Empoasca fabae)
Experiment: Test D: control of potato leafhopper on Soleil bean plant, contact and/or systemic
Type: in vivo
Details: 144 h, 6 days, very good to excellent control, read-out: control efficacy: mortality; for mortality at 50 ppm: sprayed at 50 ppm; for mortality at 250 ppm: sprayed at 250 ppm
Method: Test compounds were formulated using a solution containing 10% acetone, 90% water and 300 ppm X-77® Spreader Lo-Foam Formula non-ionic surfactant containing alkylarylpolyoxyethylene, free fatty acids, glycols and isopropanol (Loveland Industries, Inc. Greeley, Colo., USA). The formulated compounds were applied in 1 mL of liquid through a SUJ2 atomizer nozzle with ⅛ JJ custom body (Spraying Systems Co., Wheaton, Ill., USA) positioned 1.27 cm (0.5 inches) above the top of each test unit. Test compounds were sprayed at 250 ppm and/or 50 ppm, and replicated three times. After spraying of the formulated test compound, each test unit was allowed to dry for 1 h and then a black, screened cap was placed on top. The test units were held for 6 days in a growth chamber at 25° C. and 70% relative humidity. Plant feeding damage was then visually assessed based on foliage consumed.
For evaluating control of potato leafhopper (Empoasca fabae) through contact and/or systemic means, the test unit consisted of a small open container with a 5-6-day-old Soleil bean plant (primary leaves emerged) inside. White sand was added to the top of the soil and one of the primary leaves was excised prior to application.
Test compounds were formulated and sprayed at 250 ppm and/or 50 ppm, and the tests were replicated three times as described for Test A. After spraying, the test units were allowed to dry for 1 h before they were post-infested with 5 potato leafhoppers (18-21-day-old adults). A black, screened cap was placed on the top of each test unit, and the test units were held for 6 days in a growth chamber at 24° C. and 70% relative humidity. Each test unit was then visually assessed for insect mortality.

Row | SMILES | mortality at 50 ppm | mortality at 250 ppm
1 | COC(=O)C1CCN(Cc2cc(-c3cccc(C(F)(F)F)c3)nn2-c2ccc(F)cc2)CC1 [Compound 6, methyl 1-[[1-(4-fluorophenyl)-3-[3-(trifluoromethyl)phenyl]-1H-pyrazol-5-yl]methyl]-4-piperidinecarboxylate] | ≥ 80% | ≥ 80%
2 | N#CC1CCN(Cc2c(-c3ccc(F)cc3F)nc3n2CCc2ccc(Cl)cc2-3)CC1 [Compound 151] |  | ≥ 80%
3 | Fc1ccc(-c2[nH]c(-c3cccc(C(F)(F)F)c3)nc2CN2CCOCC2)c(F)c1 [Compound 44, 4-[[5-(2,4-difluorophenyl)-2-[3-(trifluoromethyl)phenyl]-1H-imidazol-4-yl]methyl]morpholine] | ≥ 80% | ≥ 80%
4 | CC(=O)NC1CCN(Cc2oc(-c3cccc(C(F)(F)F)c3)nc2-c2ccc(F)cc2)CC1 [Compound 65, N-[1-[[4-(4-fluorophenyl)-2-[3-(trifluoromethyl)phenyl]-5-oxazolyl]methyl]-4-piperidinyl]acetamide] | ≥ 80% | ≥ 80%
5 | N#CC1CCN(Cc2c(-c3ccc(F)cc3F)nc3n2CCc2cc(Cl)ccc2-3)CC1 [Compound 155] |  | ≥ 80%
6 | Cn1c(-c2cccc(C(F)(F)F)c2)nc(CN2CCOCC2)c1-c1ccc(F)cc1F (single isomer, unassigned) [Compound 49, 4-[[5-(2,4-difluorophenyl)-1-methyl-2-[3-(trifluoromethyl)phenyl]-1H-imidazol-4-yl]methyl]morpholine] |  | ≥ 80%
